# “Also recorded” adds a separate entry of the source.
# How the values were obtained:
# [1] = system: PBMCs of CD8 lymphocyte-depleted patients; format: cell-based, human
# From the text: Specifically, MB inhibits by 70 to 100% the level of HIV viral protein p24 in the culture supernatants. This effect correlates with the level of expression of viral messenger RNAs (nonspliced and single-spliced).
# [2] = in vivo; cited from earlier work
# RH116 gene = assay: Semiquantitative RT-PCR of RH116 gene expression in PBMCs of healthy donors; format: cell-based, human; conditions: 10 healthy controls, in particular after 6 hours, 10 μg/ml
# Method: (§1) The total cellular RNA extracted using the RNA plus kit (Q-BIOgene, Illkirch, France) is pretreated with DNAse I. Synthesis of the first strand on the polyA+ RNA was primed with a p(dT)15 primer (BOERHINGER MANNHEIM, ROCHE DIAGNOSTICS, France) and carried out with the reverse transcriptase derived from the Moloney murine leukemia virus (M-MLV) (PROMEGA, Madison, Calif., USA) (1 hour at 37° C., 3 min at 92° C.). The resulting cDNA is then subjected to 25 to 35 repeat amplification cycles with the AmpliTaq Gold polymerase (APPLIED BIOSYSTEMS). PCR amplification of the GAPDH sequences is carried out in order to obtain an internal control. […]
# PBMCs of patients (P) infected with HIV or of control healthy donors (C) are isolated, depleted of CD8+ lymphocytes (Dynabeads, Dynal) and stimulated with phytohemagglutinin, PHA (5 μg/ml), for 3 days. […] The number of amplification cycles was determined beforehand (35 cycles). The amplified fragments are visualized on an agarose gel (1%) in the presence of ethidium bromide, and then quantified using the Imager master program (Pharmacia). […] The results are then expressed as % increase or % inhibition of expression of the gene compared with the untreated cells. […]
# RH116 messenger RNA = assay: Semiquantitative RT-PCR of RH116 mRNA in CD8-depleted PBMCs of HIV-1 infected patients; format: cell-based, human; conditions: for maximum mean inhibition of expression of the RH116 messenger RNA: murabutide 10 μg/ml
# From the text: Venous blood is collected from patients sero-positive for HIV-1 and peripheral blood mononuclear cells (PBMCs) are isolated by centrifugation on Ficoll-Hypaque (AMERSHAM PHARMACIA BIOTECH, Uppsala, Sweden). The cells are washed carefully in order to remove the platelets and are depleted of CD8+ cells using electro-magnetic beads covered with an anti-CD8 antibody (DYNAL, Oslo, Norway). The depleted PBMCs obtained using the manufacturer's protocol contain less than 3% of CD8+ cells after analysis by flow cytometry. […]. Next, the PBMCs are cultured and then recovered in the presence or absence of murabutide (N-acetylmuramyl-L-alanyl-D-glutamine-n-butyl ester) (provided by ISTAC SA, Lille, France) (10 μg/ml) and interleukin 2 (IL-2) (10 μg/ml) for 6 or 24 hours.
# as §1
# PBMCs of patients (P) infected with HIV or of control healthy donors (C) are isolated, depleted of CD8+ lymphocytes (Dynabeads, Dynal) and stimulated with phytohemagglutinin, PHA (5 μg/ml), for 3 days. […] The number of amplification cycles was determined beforehand (35 cycles). The amplified fragments are visualized on an agarose gel (1%) in the presence of ethidium bromide, and then quantified using the Imager master program (Pharmacia). […]
# [3] = system: human immunodeficiency virus (HIV); conditions: macrophages, dendritic cells, PBMCs of infected patients; cited from earlier work
substance,measurement,setting,value
N-acetylmuramyl-L-alanyl-D-glutamine-n-butyl ester [murabutide],number of live cells (lack of toxicity),[1],remain unchanged
same,clinical tolerance,[2],good clinical tolerance
same,inflammatory reactions,[2],does not induce inflammatory reactions
same,pyrogenicity,[2],not pyrogenic
same,toxicity in clinical studies,[2],has not shown severe toxicity
same,expression of the RH116 gene compared with untreated cells,RH116 gene,increases the level of expression; also recorded: very significant increase
same,expression of the RH116 gene compared with untreated cells,"RH116 messenger RNA; 12 patients, 6 or 24 h, 10 μg/ml",significant inhibition
same,maximum mean inhibition of expression of the RH116 messenger RNA,"RH116 messenger RNA; 6 hours, patient No. 5",90%
same,maximum mean inhibition of expression of the RH116 messenger RNA,"RH116 messenger RNA; 24 hours, patient No. 3",57%
same,HIV replication,[3],inhibits

# — US20040086500A1, “Rh116 polypeptides and its fragments and polynucleotides encoding said polypeptides and therapeutic uses” (priority 2000, published 2004)
